Experimental data taken from patent US10927105B1 (Lundbeck La Jolla Research Center, Inc., priority 2017, dated 2021).

What was measured:
FAAH [1] = target: FAAH (Homo sapiens (Human), UniProt O00519); test: In vitro competitive activity-based protein profiling (human prefrontal cortex membrane fractions, FP-Rh probe), FAAH band; details: for FAAH % inh. 1 μM (human) / IC50: human prefrontal cortex membrane fractions; for IC50: read-out: FAAH IC50 (μM) (human)
Protocol: (§1) Biological Evaluation In Vitro Competitive Activity-Based Protein Profiling.
(§2) Proteomes (mouse brain membrane fraction for mouse assays; human prefrontal cortex membrane fractions for human assays) (50 mL, 1.0 mg/mL total protein concentration) were preincubated with varying concentrations of inhibitors at 37° C. After 30 min, FP-Rh (1.0 mL, 50 mM in DMSO) was added and the mixture was incubated for another 30 min at 37° C. Reactions were quenched with SDS loading buffer (15 μL-4×) and run on SDS-PAGE.

MAGL [2] = target: T1, MAGL (Mus musculus (Mouse), UniProt O35678); test: Mouse brain proteomes from inhibitor treated mice (oral gavage, sacrificed 4 h after administration, brain proteomes analyzed); assay type: in vivo; details: 5 mg/kg oral gavage
FAAH [3] = target: T2, FAAH (Mus musculus (Mouse), UniProt O08914); test: Mouse brain proteomes from inhibitor treated mice (oral gavage, sacrificed 4 h after administration), FAAH; assay type: in vivo; details: 5 mg/kg oral gavage
FAAH [4] = target: T2, FAAH; test: In vitro competitive activity-based protein profiling (mouse brain membrane fraction, FP-Rh probe), FAAH band
Protocol: as §1, §2

MAGL [5] = target: T1, MAGL; test: In vitro competitive activity-based protein profiling (mouse brain membrane fraction, FP-Rh probe), MAGL band
Protocol: as §1, §2

MAGL [6] = target: MAGL (Homo sapiens (Human), UniProt Q99685); test: In vitro competitive activity-based protein profiling (human prefrontal cortex membrane fractions, FP-Rh probe), MAGL band; details: for MAGL % inh. 1 μM (human) / IC50: human prefrontal cortex membrane fractions; for IC50: read-out: MAGL IC50 (μM) (human)
FAAH [7] = target: T2, FAAH; test: Mouse brain proteomes from inhibitor treated mice (oral gavage, sacrificed 4 h after administration, brain proteomes analyzed), FAAH; assay type: in vivo; details: 5 mg/kg oral gavage, read-out: FAAH % inh. 5 mg/kg (mouse)

Chain of FAAH (Homo sapiens (Human), UniProt O00519) (O00519 whole entry): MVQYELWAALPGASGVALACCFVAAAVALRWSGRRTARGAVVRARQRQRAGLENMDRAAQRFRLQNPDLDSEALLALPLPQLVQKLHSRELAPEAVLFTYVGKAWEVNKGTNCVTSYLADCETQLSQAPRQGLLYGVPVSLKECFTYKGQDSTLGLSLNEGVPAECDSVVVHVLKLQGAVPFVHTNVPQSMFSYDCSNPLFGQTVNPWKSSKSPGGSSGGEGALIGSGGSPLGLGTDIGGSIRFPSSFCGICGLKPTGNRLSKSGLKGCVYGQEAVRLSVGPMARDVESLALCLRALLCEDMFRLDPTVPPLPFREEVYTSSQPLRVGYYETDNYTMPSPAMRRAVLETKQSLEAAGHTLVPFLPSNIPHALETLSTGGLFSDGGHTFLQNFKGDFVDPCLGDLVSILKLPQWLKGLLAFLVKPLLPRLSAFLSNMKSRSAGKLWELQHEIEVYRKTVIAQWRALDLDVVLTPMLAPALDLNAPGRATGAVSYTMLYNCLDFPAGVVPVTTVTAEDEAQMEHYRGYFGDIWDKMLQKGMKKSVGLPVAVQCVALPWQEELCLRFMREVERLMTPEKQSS
Chain of MAGL (Homo sapiens (Human), UniProt Q99685) (Q99685 whole entry): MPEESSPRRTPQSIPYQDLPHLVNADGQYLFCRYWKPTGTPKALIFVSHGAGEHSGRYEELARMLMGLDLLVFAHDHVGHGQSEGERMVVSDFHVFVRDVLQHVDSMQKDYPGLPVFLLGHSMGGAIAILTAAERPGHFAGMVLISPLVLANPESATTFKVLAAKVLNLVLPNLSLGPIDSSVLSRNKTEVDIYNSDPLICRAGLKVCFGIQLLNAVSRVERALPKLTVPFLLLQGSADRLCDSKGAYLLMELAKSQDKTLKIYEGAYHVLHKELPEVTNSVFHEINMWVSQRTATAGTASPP
T1 sequence (O35678 whole entry): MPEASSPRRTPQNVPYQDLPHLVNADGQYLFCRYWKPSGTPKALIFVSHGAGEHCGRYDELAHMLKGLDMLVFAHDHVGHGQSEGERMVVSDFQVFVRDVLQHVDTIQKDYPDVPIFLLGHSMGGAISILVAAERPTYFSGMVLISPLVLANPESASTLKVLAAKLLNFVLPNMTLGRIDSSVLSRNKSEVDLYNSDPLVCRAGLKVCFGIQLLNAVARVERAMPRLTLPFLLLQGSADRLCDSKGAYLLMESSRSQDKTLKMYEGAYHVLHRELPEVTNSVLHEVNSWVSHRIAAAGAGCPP
T2 sequence (O08914 whole entry): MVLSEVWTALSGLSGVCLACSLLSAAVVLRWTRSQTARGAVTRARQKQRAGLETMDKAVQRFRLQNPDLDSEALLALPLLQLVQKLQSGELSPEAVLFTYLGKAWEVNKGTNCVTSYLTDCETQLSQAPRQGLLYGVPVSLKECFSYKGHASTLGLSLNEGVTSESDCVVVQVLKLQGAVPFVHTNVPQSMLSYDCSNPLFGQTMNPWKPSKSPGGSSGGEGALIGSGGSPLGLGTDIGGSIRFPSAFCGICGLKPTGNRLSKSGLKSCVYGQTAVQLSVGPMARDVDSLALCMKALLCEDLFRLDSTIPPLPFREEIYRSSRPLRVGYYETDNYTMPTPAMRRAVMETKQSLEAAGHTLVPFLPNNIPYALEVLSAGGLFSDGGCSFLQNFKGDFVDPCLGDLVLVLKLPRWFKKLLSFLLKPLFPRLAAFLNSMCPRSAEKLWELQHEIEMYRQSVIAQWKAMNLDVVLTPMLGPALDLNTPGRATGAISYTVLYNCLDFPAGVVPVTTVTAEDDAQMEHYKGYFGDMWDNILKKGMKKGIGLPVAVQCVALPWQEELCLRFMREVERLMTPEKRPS

| Compound | IC50 (FAAH [1]) [µM] | IC50 (MAGL [6]) [µM] | also measured |
| --- | --- | --- | --- |
| O=C(O)c1ccn(C(=O)N2CCC3(CCCN3Cc3ccc(C(F)(F)F)cc3Cl)CC2)n1 [Example 76, 1-(1-(2-chloro-4-(trifluoromethyl)-benzyl)-1,8-diazaspiro[4.5]-decane-8-carbonyl)-1H-pyrazole-3-carboxylic acid] | – | – | FAAH % inh. 1 μM (human) (FAAH [1]): D (% inhibition is greater than or equal to 0% and less than 25%); MAGL % inh. 5 mg/kg (mouse) (MAGL [2]): D (% inhibition is greater than or equal to 0% and less than 25%); FAAH % inh. 5 mg/kg (mouse) (FAAH [3]): D (% inhibition is greater than or equal to 0% and less than 25%); FAAH % inh. 1 μM (mouse) (FAAH [4]): D (% inhibition is greater than or equal to 0% and less than 25%); MAGL % inh. 1 μM (mouse) (MAGL [5]): A (% inhibition is greater than or equal to 75%); MAGL % inh. 1 μM (human) (MAGL [6]): A (% inhibition is greater than or equal to 75%) |
| O=C(O)c1nn(C(=O)N2CCC3(CCCN3Cc3cc4ccc(C(F)(F)F)cc4s3)CC2)cc1Cl [Example 139, 4-chloro-1-(1-((6-(trifluoromethyl)-benzo[b]thiophen-2-yl)methyl)-1,8-diazaspiro[4.5]-decane-8-carbonyl)-1H-pyrazole-3-carboxylic acid] | < 0.1 | < 0.1 | – |
| O=C(O)c1ccn(C(=O)N2CCC3(CCN(Cc4cc(F)cc(C(F)(F)F)c4)C3)CC2)n1 [Example 152, 1-(2-(3-fluoro-5-(trifluoromethyl)-benzyl)-2,8-diazaspiro[4.5]-decane-8-carbonyl)-1H-pyrazole-3-carboxylic acid] | – | – | FAAH % inh. 1 μM (human) (FAAH [1]): D (% inhibition is greater than or equal to 0% and less than 25%); FAAH % inh. 1 μM (mouse) (FAAH [4]): B (% inhibition is greater than or equal to 50% and less than 75%); MAGL % inh. 1 μM (mouse) (MAGL [5]): A (% inhibition is greater than or equal to 75%); MAGL % inh. 1 μM (human) (MAGL [6]): A (% inhibition is greater than or equal to 75%) |
| O=C(O)c1ccn(C(=O)N2CCC3(CCN(Cc4cccc(OC(F)(F)F)c4)C3)CC2)n1 [Example 153, 1-(2-(3-(trifluoromethoxy)-benzyl)-2,8-diazaspiro[4.5]-decane-8-carbonyl)-1H-pyrazole-3-carboxylic acid] | – | – | FAAH % inh. 1 μM (human) (FAAH [1]): D (% inhibition is greater than or equal to 0% and less than 25%); FAAH % inh. 1 μM (mouse) (FAAH [4]): C (% inhibition is greater than or equal to 25% and less than 50%); MAGL % inh. 1 μM (mouse) (MAGL [5]): A (% inhibition is greater than or equal to 75%); MAGL % inh. 1 μM (human) (MAGL [6]): A (% inhibition is greater than or equal to 75%) |
| O=C(O)c1ccn(C(=O)N2C[C@H]3C[C@H](OCc4cccc(Oc5ccc(Cl)cc5)c4)C[C@H]3C2)n1 [Example 158, 1-(trans-5-((3-(4-chlorophenoxy)-benzyl)oxy)-octahydrocyclopenta-[c]pyrrole-2-carbonyl)-1H-pyrazole-3-carboxylic acid] | < 0.1 | < 0.1 | – |
| O=C(O)c1ccn(C(=O)N2CCN(Cc3cc(F)cc(Oc4ccc(Cl)cc4)c3)CC2)n1 [Example 161, 1-(4-(3-(4-chlorophenoxy)-5-fluorobenzyl)-piperazine-1-carbonyl)-1H-pyrazole-3-carboxylic acid] | < 0.1 | < 0.1 | – |
| Cc1cc(CO[C@H]2C[C@@H]3CN(C(=O)n4ccc(C(=O)O)n4)C[C@@H]3C2)ccc1C(F)(F)F [Example 172, 1-(trans-5-((3-methyl-4-(trifluoromethyl)-benyl)oxy)-octahydrocyclopenta-[c]pyrrole-2-carbonyl)-1H-pyrazole-3-carboxylic acid] | < 0.1 | < 0.1 | – |
| NC(=O)c1ccn(C(=O)N2CCC3(CCN(Cc4cc(Cl)cc(C(F)(F)F)c4)C3)CC2)n1 [Example 196, 1-(2-(3-chloro-5-(trifluoromethyl)-benzyl)-2,8-diazaspiro[4.5]-decane-8-carbonyl)-1H-pyrazole-3-carboxamide] | < 0.1 | < 0.1 | – |
| NC(=O)c1ccn(C(=O)N2CCN(Cc3cccc(Oc4ccccc4)c3)CC2)n1 [Example 198, 1-(4-(3-phenoxybenzyl)-piperazine-1-carbonyl)-1H-pyrazole-3-carboxamide] | – | – | inhibition at 1 µM (FAAH [1]; read-out: FAAH % inh. 1 μM (human)): > 75%; inhibition at 1 µM (MAGL [6]; read-out: MAGL % inh. 1 μM (human)): > 75% |
| CN(Cc1ccccc1Cl)[C@H]1C[C@@H]2CN(C(=O)n3ccc(C(N)=O)n3)C[C@@H]2C1 [Example 200, 1-(trans-5-((2-chlorobenzyl)-(methyl)amino)-octahydrocyclopenta-[c]pyrrole-2-carbonyl)-1H-pyrazole-3-carboxamide] | < 0.1 | < 0.1 | – |
| NC(=O)c1ccn(C(=O)N2CC3CN(Cc4cc(Cl)cc(C(F)(F)F)c4)CC3C2)n1 (stereo not drawn) [Example 201, 1-(5-(3-chloro-5-(trifluoromethyl)-benzyl)-octahydropyrrolo-[3,4-c]pyrrole-2-carbonyl)-1H-pyrazole-3-carboxamide] | < 0.1 | < 0.1 | – |
| CN(Cc1ccccc1Cl)[C@@H]1C[C@@H]2CN(C(=O)n3ccc(C(N)=O)n3)C[C@@H]2C1 [Example 206, 1-(cis-5-((2-chlorobenzyl)-(methyl)amino)-octahydrocyclopenta-[c]pyrrole-2-carbonyl)-1H-pyrazole-3-carboxamide] | < 0.1 | < 0.1 | – |
| O=C(O)c1ccn(C(=O)N2CCC3(CCCN3C(=O)c3ccc(C(F)(F)F)cc3N3CCCC3)CC2)n1 [Example 403, 1-(1-(2-(pyrrolidin-1-yl)-4-(trifluoromethyl)-benzoyl)-1,8-diazaspiro[4.5]-decane-8-carbonyl)-1H-pyrazole-3-carboxylic acid] | – | – | inhibition at 5 mg/kg (FAAH [7]): 0 to 25% |
| O=C(O)c1ccn(C(=O)N2CCC3(CCCN3Cc3ccc(C(F)(F)F)cc3N3CCCCC3)CC2)n1 [Example 404, 1-(1-(2-(piperidin-1-yl)-4-(trifluoromethyl)-benzyl)-1,8-diazaspiro[4.5]-decane-8-carbonyl)-1H-pyrazole-3-carboxylic acid] | – | – | inhibition at 5 mg/kg (FAAH [7]): 0 to 25% |

Continued, in another order:

| IC50 (FAAH [1]) [µM] | IC50 (MAGL [6]) [µM] | Compound | also measured |
| --- | --- | --- | --- |
| < 0.1 | < 0.1 | CN(Cc1ccccc1Cl)[C@H]1C[C@@H]2CN(C(=O)n3cc(Cl)c(C(N)=O)n3)C[C@@H]2C1 [Example 128, 4-chloro-1-(trans-5-((2-chlorobenzyl)-(methyl)amino)-octahydrocyclopenta-[c]pyrrole-2-carbonyl)-1H-pyrazole-3-carboxamide] | – |
| < 0.1 | < 0.1 | O=C(O)c1nn(C(=O)N2CCN(Cc3cccc(Oc4ccc(Cl)cc4)c3)CC2)cc1Cl [Example 132, 4-chloro-1-(4-(3-(4-chlorophenoxy)-benzyl)-piperazine-1-carbonyl)-1H-pyrazole-3-carboxylic acid] | – |
| < 0.1 | < 0.1 | C#Cc1ccc(CN2CCN(C(=O)n3ccc(C(N)=O)n3)CC2)cc1 [Example 144, 1-(4-(4-ethynylbenzyl)-piperazine-1-carbonyl)-1H-pyrazole-3-carboxamide] | – |
| < 0.1 | < 0.1 | NC(=O)c1ccn(C(=O)N2CCN(Cc3ccc(C(F)(F)F)cc3N3CCCC3)CC2)n1 [Example 173, 1-(4-(2-(pyrrolidin-1-yl)-4-(trifluoromethyl)-benzyl)piperazine-1-carbonyl)-1H-pyrazole-3-carboxamide] | – |
| < 0.1 | < 0.1 | CN(Cc1cccc(C(F)(F)F)c1)C1CCN(C(=O)n2ccc(C(N)=O)n2)CC1 [Example 176, 1-(4-(methyl(3-(trifluoromethyl)-benzyl)amino)-piperidine-1-carbonyl)-1H-pyrazole-3-carboxamide] | – |
| < 0.1 | < 0.1 | NC(=O)c1ccn(C(=O)N2CCC3(CCN(Cc4ccc(N5CCCC5)cc4C(F)(F)F)C3)CC2)n1 [Example 195, 1-(2-(4-(pyrrolidin-1-yl)-2-(trifluoromethyl)-benzyl)-2,8-diazaspiro[4.5]-decane-8-carbonyl)-1H-pyrazole-3-carboxamide] | – |
| < 0.1 | < 0.1 | NC(=O)c1ccn(C(=O)N2CC3CN(Cc4cc(Cl)ccc4Cl)CC3C2)n1 (stereo not drawn) [Example 202, 1-(5-(2,5-dichlorobenzyl)-octahydropyrrolo-[3,4-c]pyrrole-2-carbonyl)-1H-pyrazole-3-carboxamide] | – |
| < 0.1 | < 0.1 | CN(Cc1ccccc1C(F)(F)F)[C@@H]1C[C@@H]2CN(C(=O)n3ccc(C(N)=O)n3)C[C@@H]2C1 [Example 204, 1-(cis-5-(methyl(2-(trifluoromethyl)-benzyl)amino)-octahydrocyclopenta-[c]pyrrole-2-carbonyl)-1H-pyrazole-3-carboxamide] | – |
| < 0.1 | < 0.1 | CN(Cc1ccc(C(F)(F)F)cc1)[C@@H]1C[C@@H]2CN(C(=O)n3ccc(C(N)=O)n3)C[C@@H]2C1 [Example 205, 1-(cis-5-(methyl(4-(trifluoromethyl)-benzyl)amino)-octahydrocyclopenta-[c]pyrrole-2-carbonyl)-1H-pyrazole-3-carboxamide] | – |
| < 0.1 | < 0.1 | NC(=O)c1ccn(C(=O)N2CC3CN(Cc4cccc(C(F)(F)F)c4)CC3C2)n1 (stereo not drawn) [Example 208, 1-(5-(3-(trifluoromethyl)-benzyl)-octahydropyrrolo-[3,4-c]pyrrole-2-carbonyl)-1H-pyrazole-3-carboxamide] | – |
